Reference: patent US9359275B2, “Natural product antibiotics and analogs thereof” (Children's Medical Center Corporation, priority 2012, dated 2016)
Converted amounts (≈) assume the structure as drawn. Like-named read-outs stand apart in the source and are kept apart here.

How the values were obtained:
[1] = system: V. cholerae PW357; assay: MIC, microdilution broth method in CAMHB; type: cell-based, Vibrio cholerae
[2] = system: P. aeruginosa ATCC 27853; assay: MIC, microdilution broth method in CAMHB; type: cell-based, Pseudomonas aeruginosa
[3] = system: K. pneumoniae carbapenemase positive ATCC BAA-1705; assay: MIC, microdilution broth method in CAMHB; type: cell-based, Klebsiella pneumoniae
[4] = system: M. tuberculosis H37Rv ATCC 27294; assay: MIC, microplate-based Alamar blue assay (MABA); type: cell-based, Mycobacterium tuberculosis
[5] = system: MRSA ATCC BAA-976; assay: MIC, microdilution broth method in CAMHB; type: cell-based, Staphylococcus aureus
[6] = system: E. coli ATCC 25922; assay: MIC, microdilution broth method in CAMHB; type: cell-based, Escherichia coli
[7] = system: V. cholerae; assay: Medium acidification (sugar fermentation) assay in pH-MMSuc, A615; conditions: 30° C.
Description: The assays were carried out at 30° C. in pH-MMSuc to monitor sugar fermentation by A615 (FIGS. 5A, 5B, and 5C) or in MMPyr to monitor bacterial growth by OD615 (D, E, and F).
The assays were carried out at 30° C. in pH-MMSuc to monitor sugar fermentation by A615.
A minimal medium (MM) supplemented with sucrose (0.5% wt/vol), thymol blue (0.006% wt/vol) and bromothymol blue (0.006% wt/vol) (pH-MM^Suc) was used for the HTS (Houot et al., J Bacteriol (2008) 190: 311-320).
Conditions were tested in duplicate in each experiment, and two experimental replicates were performed on separate days.

[8] = system: V. cholerae; assay: Growth assay in MMPyr (OD615) and plating for CFU; conditions: with the assay described
Description: The assays were carried out at 30° C. in pH-MMSuc to monitor sugar fermentation by A615 (FIGS. 5A, 5B, and 5C) or in MMPyr to monitor bacterial growth by OD615 (D, E, and F). Bacteria were exposed to compound 1 (FIGS. 5A and 5D), compound 2 (FIGS. 5B and 5E) or compound 3 (FIGS. 5C and 5F) at concentrations ranging from 14 to 383 μM.
In secondary screens, MM was also supplemented with glucose (0.5% wt/vol), thymol blue (0.006% wt/vol), and bromothymol blue (0.006% wt/vol) (pH-MM^Glu') or pyruvate (0.5% wt/vol) (MM^Pyr).
Conditions were tested in duplicate in each experiment, and two experimental replicates were performed on separate days. […] To determine whether this represented bacteriostatic or bactericidal activity, dilutions of the cell suspensions were plated on LB agar after 20 hours of growth in MM^Pyr supplemented with compound 1 at a concentration of 383 μM.

[9] = Vibrio cholerae, V. cholerae PW357, read-out: MIC
[10] = Pseudomonas aeruginosa, ATCC27853, P. aeruginosa ATCC 27853, read-out: MIC
[11] = Klebsiella pneumoniae, ATCCBAA1705, K. pneumoniae carbapenemase positive ATCC BAA-1705, read-out: MIC
[12] = Mycobacterium tuberculosis, M. tuberculosis H37Rv ATCC 27294, Alamar Blue Assay, ≧90% inhibition, read-out: MIC
[13] = Staphylococcus aureus, MRSA ATCC BAA-976, read-out: MIC
[14] = Escherichia coli, ATCC25922, E. coli ATCC 25922, read-out: MIC

| Molecule | MIC [1, 9] [µg/mL] | MIC [2, 10] [µg/mL] | MIC [3, 11] [µg/mL] | MIC [4, 12] [µg/mL] | MIC [5, 13] [µg/mL] | MIC [6, 14] [µg/mL] | also measured |
| --- | --- | --- | --- | --- | --- | --- | --- |
| CC1(C)S[C@@H]2[C@H](NC(=O)[C@H](N)c3ccccc3)C(=O)N2[C@H]1C(=O)O [AMP, ampicillin] | 2.5 (≈ 7.15 µM) | > 80 | > 80 | 0.25 (≈ 0.715 µM) | > 80 | 2.5 (≈ 7.15 µM) | – |
| CCCc1c(O)ccc(O)c1CO [Compound 1, 2-(hydroxymethyl)-3-propyl hydroquinone] | – | – | – | – | – | – | MIC ([1]; Vibrio cholerae, PW357): 40 µg/mL (≈ 220 µM); MIC ([2]; Pseudomonas aeruginosa, ATCC27853): 80 µg/mL (≈ 439 µM); MIC ([3]; Klebsiella pneumoniae, ATCCBAA1705): > 80 µg/mL; MIC ([4]; Mycobacterium tuberculosis): 25 µg/mL (≈ 137 µM); MIC ([5]; Staphylococcus aureus): 10 µg/mL (≈ 54.9 µM); concentration at which medium acidification was completely blocked [7]: 261 µM; concentration at which medium acidification was inhibited [7]: 134 µM; MIC ([6]; Escherichia coli, ATCC25922): 80 µg/mL (≈ 439 µM) |
| CC1Cc2c(ccc(O)c2CO)O1 (centres unmarked) [Compound 2, 5-hydroxy-4-(hydroxymethyl)-2-methyl 2,3-dihydrobenzofuran] | – | – | – | – | – | – | antibacterial activity (in words) [8]: demonstrated anti-bacterial activity |
| CCCC1=C(CO)C(=O)C=CC1=O [Compound 3, 2-(hydroxymethyl)-3-propyl benzoquinone] | – | – | – | – | – | – | antibacterial activity (in words) [8]: little to no antibacterial activity |
| C[C@@H](O)[C@H]1C(=O)N2C(C(=O)O)=C(SCCN=CN)C[C@H]12 [IMI, imipenem] | 1.25 (≈ 4.18 µM) | 5 (≈ 16.7 µM) | > 80 | 100 (≈ 334 µM) | 1.25 (≈ 4.18 µM) | 1.25 (≈ 4.18 µM) | – |
| C[C@H]1COc2c(N3CCN(C)CC3)c(F)cc3c(=O)c(C(=O)O)cn1c23 [LEVO, levofloxacin] | < 0.005 | 1.25 (≈ 3.46 µM) | > 80 | 0.25 (≈ 0.692 µM) | 0.312 (≈ 0.863 µM) | 0.019 (≈ 0.0526 µM) | – |
| CC1(O)CCC(c2c(O)cc3c(c2O)C(=O)c2c(O)cc(O)cc2C3=O)CO1 (centres unmarked) [SC3-22-19] | – | – | – | – | – | – | sugar utilization [7]: decreased sugar utilization |
| bactrim [TMP/SMX] | – | – | – | – | – | – | MIC ([1]; V. cholerae PW357): >16 µg/mL; MIC [2]: >16 µg/mL; MIC ([3]; K. pneumoniae carbapenemase positive ATCC BAA-1705): >16 µg/mL; MIC ([4]; M. tuberculosis H37Rv ATCC 27294, Alamar Blue Assay, ≧90% inhibition): 2 µg/mL; MIC ([5]; MRSA ATCC BAA-976): 0.062 µg/mL; MIC ([6]; E. coli ATCC 25922): 0.125 µg/mL |
